Data on 2 compounds can be found in patent publication US20230337678A1, “NITRIC OXIDE-RELEASING ANTIBACTERIAL COMPOUNDS, FORMULATIONS, AND METHODS PERTAINING THERETO” (KNOW BIO, LLC, priority 2020, published 2023).

Data set [1] has as its system Mycobacterium abscessus. Description: MIC/MBC assays, CLSI method. It counts as cell-based. The conditions noted are these: Table 14, unit not given.

Turning to `OC[C@H]1O[C@@H]2O[C@H]3[C@H](O)[C@@H](O)[C@@H](O[C@H]4[C@H](O)[C@@H](O)[C@@H](O[C@H]5[C@H](O)[C@@H](O)[C@@H](O[C@H]6[C@H](O)[C@@H](O)[C@@H](O[C@H]7[C@H](O)[C@@H](O)[C@@H](O[C@H]8[C@H](O)[C@@H](O)[C@@H](O[C@H]1[C@H](O)[C@H]2O)O[C@@H]8CO)O[C@@H]7CO)O[C@@H]6CO)O[C@@H]5CO)O[C@@H]4CO)O[C@@H]3CO` [0% MTDD/100% β-cyclodextrin, β-cyclodextrin], the NO-loading (compositions of MTDD (NCT-19-096) and β-cyclodextrin) was determined as 0.0 µmol/mg.

Regarding `C[C@@H]1CCC[C@H](C)N1[N+]([O-])=N[O-].[Na+]` [cis-DMP/NO], the MBC was determined as 4 in data set [1] (M. abscessus N0010, clinical); 4 in data set [1] (M. abscessus N0016, clinical); 4 in data set [1] (M. abscessus N0017, clinical); 4 in data set [1] (M. abscessus N0018, clinical); 4 in data set [1] (M. abscessus N0019, clinical); 2 in data set [1] (M. abscessus N0020, clinical). This compound registered an MBC in data set [1] (M. abscessus N0046) of 4. In addition, the MIC in data set [1] (M. abscessus N0010, clinical) worked out at 1; in data set [1] (M. abscessus N0016, clinical), 2; in data set [1] (M. abscessus N0017, clinical), 2; in data set [1] (M. abscessus N0018, clinical) it was 1; in data set [1] (M. abscessus N0019, clinical), 2; in data set [1] (M. abscessus N0020, clinical), 1. For the same compound, in data set [1] (M. abscessus N0046), the MIC was determined as 2. In addition, the “NO Load” value (Table 14, unit not given) is given as 6.9.
